In patent US10849896B2, “Sortilin-binding small molecules for increasing glucose uptake” (University of South Florida, priority 2015, dated 2020):

Key:
Type in all cases: cell-based, mouse
sortilin mRNA = experiment: RT-PCR for sortilin mRNA in treated 3T3L1 cells; settings: 500 nM, added day 3 of differentiation, maintained to day 8; total RNA
Description: (§1) 2-(3,5-Dioxo-4-azatricyclo[5.2.1.0˜2,6˜]dec-8-en-4-yl)-4-methylpentanoic acid and 4-[(3,4-dichlorophenyl)amino]-3-(3-methylbenzyl)-4-oxobutanoic acid were used to treat 3T3L1 cells at 500 nM concentration on day 3 of differentiation and maintained in culture up to day 8 when the cells mature into adipocytes with well-developed lipid bodies. Whole cell lysate was isolated and western blot analysis was performed using anti-sortilin antibody. […] To determine the compounds effect sortilin gene expression, 3T3L1 cells were treated as above and total RNA was isolated. RT-PCR was performed using sortilin primers.

sortilin = experiment: Western blot for sortilin expression in treated 3T3L1 cells; settings: 500 nM, added day 3 of differentiation, maintained to day 8; whole cell lysate
Description: as §1

3T3L1 cells = experiment: [3-H]-deoxy-2-D-Glucose uptake in 3T3L1 adipocytes; settings: 500 nM; for glucose uptake: added day 3 of differentiation, maintained to day 8, without insulin; for glucose uptake with addition of insulin: day 3 to day 8, 100 nM insulin for 30 minutes
Description: To examine glucose uptake, 3T3L1 cells were treated on day 3 of differentiation with either 2-(3,5-dioxo-4-azatricyclo[5.2.1.0(2,6)]dec-8-en-4-yl)-4-methylpentanoic acid or 4-[(3,4-dichlorophenyl)amino]-3-(3-methylbenzyl)-4-oxobutanoic acid at 500 nM concentration and maintained in culture up to day 8 when the cells mature into adipocytes with well-developed lipid bodies. After 100 nM insulin was added to cells and maintained for 30 minutes, [3-H]-deoxy-2-D-Glucose uptake was measured.

Compound | mRNA levels of sortilin (RT-PCR) (sortilin mRNA) | sortilin expression (western blot, anti-sortilin antibody) (sortilin) | glucose uptake (3T3L1 cells) | glucose uptake with addition of insulin (3T3L1 cells)
CC(C)CC(C(=O)O)N1C(=O)C2C3C=CC(C3)C2C1=O (centres unmarked) [2-(3,5-dioxo-4-azatricyclo[5.2.1.0(2,6)]dec-8-en-4-yl)-4-methylpentanoic acid] | not affected | increase in sortilin expression | increase in glucose uptake | further increased
Cc1cccc(CC(CC(=O)O)C(=O)Nc2ccc(Cl)c(Cl)c2)c1 (centres unmarked) [4-[(3,4-dichlorophenyl)amino]-3-(3-methylbenzyl)-4-oxobutanoic acid] | not affected | increase in sortilin expression | increase in glucose uptake | further increased
